Measurements taken from ChEMBL document CHEMBL1201862, “PubChem BioAssay data set” (2004).
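Following 48 hours of exposure in 96-well plates, responses at five concentrations were used to interpolate endpoints linearly. GI50 is the concentration that inhibits growth by half.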 Calls of active or inactive are those of the source. No stated cut-off is given here; in the data, active = GI50 up to about 1.1 µM and inactive = higher.

Columns and labels:
Experiment in all cases: NCI-60 cell line screen, 48 h
A549 = test system: A549
CCRF-CEM = test system: CCRF-CEM
COLO 205 = test system: COLO 205
DU-145 = test system: DU-145
HL-60 = test system: HL-60
K562 = test system: K562
KM12 = test system: KM12
MDA-N = test system: MDA-N
MOLT-4 = test system: MOLT-4
NCI/ADR-RES = test system: NCI/ADR-RES
OVCAR-5 = test system: OVCAR-5
SK-MEL-2 = test system: SK-MEL-2
SK-MEL-5 = test system: SK-MEL-5
SK-OV-3 = test system: SK-OV-3
SR = test system: SR
SW-620 = test system: SW-620
UO-31 = test system: UO-31
EKVX = test system: EKVX
Malme-3M = test system: Malme-3M

Compound | GI50 (A549) | GI50 (CCRF-CEM) | GI50 (COLO 205) | GI50 (DU-145) | GI50 (HL-60) | GI50 (K562) | GI50 (KM12) | GI50 (MDA-N) | GI50 (MOLT-4) | GI50 (NCI/ADR-RES) | GI50 (OVCAR-5) | GI50 (SK-MEL-2) | GI50 (SK-MEL-5) | GI50 (SK-OV-3) | GI50 (SR) | GI50 (SW-620) | GI50 (UO-31) | GI50 (EKVX) | GI50 (Malme-3M)
CCN(CC)c1ccc2cc(-c3nc4ccccc4n3C)c(=O)oc2c1 | 0.578 µM (active) | 0.154 µM (active) | 0.315 µM (active) | 0.306 µM (active) | 0.206 µM (active) | 0.102 µM (active) | 0.571 µM (active) | 0.0259 µM (active) | 0.533 µM (active) | 0.135 µM (active) | 1.15 µM (inactive) | 0.255 µM (active) | 0.0948 µM (active) | 0.33 µM (active) | 0.0986 µM (active) | 0.163 µM (active) | 3.52 µM (inactive) |  | 
CCOC(=O)c1c(C)[n+]([O-])c2cc(Cl)c(Cl)cc2[n+]1[O-] | 14.6 µM (inactive) | 18.5 µM (inactive) | 19.7 µM (inactive) | 16.6 µM (inactive) | < 0.01 µM (active) | 31.4 µM (inactive) | 7.89 µM (inactive) | 31 µM (inactive) | 16.2 µM (inactive) | 23.8 µM (inactive) | 43.6 µM (inactive) | 23.3 µM (inactive) | 16.7 µM (inactive) | 26.7 µM (inactive) | 8.02 µM (inactive) |  | 24.5 µM (inactive) | 24.1 µM (inactive) | 
Oc1c(Br)cc(/C=C/c2ccnc(/C=C/c3cc(Br)c(O)c(Br)c3)c2)cc1Br | 23.6 µM (inactive) | 22.6 µM (inactive) | 27.4 µM (inactive) | 20.4 µM (inactive) | 14.5 µM (inactive) | 24.2 µM (inactive) | 19.1 µM (inactive) | 33.5 µM (inactive) | 21 µM (inactive) | 31.6 µM (inactive) | 25.5 µM (inactive) | 14.9 µM (inactive) | 19.1 µM (inactive) | 34.2 µM (inactive) | 17.8 µM (inactive) | 35.6 µM (inactive) | 19.2 µM (inactive) | 25.4 µM (inactive) | 
CCOC(=O)C1=c2[nH]c3cccc4cccc(c43)n2C=C(C(C)=O)C1CC(C)=O (stereo not given) | 46.2 µM (inactive) | 19.9 µM (inactive) | 35.1 µM (inactive) | > 100 µM (inactive) | 12.3 µM (inactive) | > 100 µM (inactive) | > 100 µM (inactive) | > 100 µM (inactive) | > 100 µM (inactive) | > 100 µM (inactive) | > 100 µM (inactive) | > 100 µM (inactive) | > 100 µM (inactive) | 6.4 µM (inactive) | > 100 µM (inactive) | 40.6 µM (inactive) | 37.4 µM (inactive) | > 100 µM (inactive) | 
CCOC(=O)c1cc2cc(Cc3ccc4[nH]c(C(=O)OCC)cc4c3)ccc2[nH]1 |  | 57.5 µM (inactive) | 47.3 µM (inactive) | 31.3 µM (inactive) | 9.35 µM (inactive) | 21.9 µM (inactive) | 23.7 µM (inactive) | 84.1 µM (inactive) | > 100 µM (inactive) | 13.4 µM (inactive) | > 100 µM (inactive) | 26.7 µM (inactive) |  | 13.6 µM (inactive) | 41.3 µM (inactive) | 63.5 µM (inactive) | 59 µM (inactive) | 21.5 µM (inactive) | 37.1 µM (inactive)
O=[N+]([O-])c1ccc(C2=NOC(c3ccc(Cl)cc3)N2C23CC4CC(CC(C4)C2)C3)cc1 (stereo not given) | 56.9 µM (inactive) | > 100 µM (inactive) | > 100 µM (inactive) | > 100 µM (inactive) | 6.46 µM (inactive) | > 100 µM (inactive) | > 100 µM (inactive) | > 100 µM (inactive) | 33.3 µM (inactive) | > 100 µM (inactive) |  | 20.2 µM (inactive) | 53 µM (inactive) | > 100 µM (inactive) | 67.9 µM (inactive) | > 100 µM (inactive) | > 100 µM (inactive) | > 100 µM (inactive) | > 100 µM (inactive)
C/C(=C/CNc1ncnc2c1ncn2CCC(=O)O)CO | > 100 µM (inactive) | > 100 µM (inactive) | > 100 µM (inactive) | > 100 µM (inactive) | > 100 µM (inactive) | > 100 µM (inactive) | > 100 µM (inactive) | > 100 µM (inactive) | > 100 µM (inactive) | > 100 µM (inactive) | > 100 µM (inactive) |  | > 100 µM (inactive) | > 100 µM (inactive) | > 100 µM (inactive) | > 100 µM (inactive) | > 100 µM (inactive) | > 100 µM (inactive) | > 100 µM (inactive)
CSC1=N/C(=C\c2ccc(C)cc2)C(=O)N1 | > 100 µM (inactive) | 92.5 µM (inactive) | > 100 µM (inactive) | > 100 µM (inactive) | 54.8 µM (inactive) |  | > 100 µM (inactive) | > 100 µM (inactive) | 81.5 µM (inactive) | > 100 µM (inactive) | > 100 µM (inactive) | > 100 µM (inactive) |  | > 100 µM (inactive) | > 100 µM (inactive) | > 100 µM (inactive) | 47.8 µM (inactive) | 52.8 µM (inactive) | > 100 µM (inactive)
